Measurements from patent EP0302423A2, “1-Phenyl-3-(1-piperazinyl)-1h-indazoles, a process and intermediates for their preparation, and the use thereof as medicaments” (HOECHST-ROUSSEL PHARMACEUTICALS INCORPORATED, priority 1987, dated 1989).
Structures can show the parent of a compound that is named as a salt. Where two headings read alike, the source gives them in different places.

Legend:
Format in all cases: in vivo
[1] = system: mice; assay: tetrabenazine induced ptosis assay in mice (antidepressant activity); conditions: for ED50: Mus musculus, ip, i.p. dose effecting calculated 50% inhibition of tetrabenazine-induced ptosis in mice, read-out: ANTI-DEPRESSANT ACTIVITY (% Inhibition of Ptosis) ED50 (mg/kg,i.p.)
Method: In this procedure, male mice (Charles River, CD-1), weighing about 20 to 39 g, are used in test groups of five animals. Test compounds are dissolved, or suspended with 1 drop of Tween-80, in distilled water and administered to the animals in volumes of 10 cc per kg of body weight. […] Tetrabenazine solution and the solvent used to dissolve, or suspend, the test compounds are administered by the same route and at the same intervals as the test compounds to a control group. […] The total score for each group of 5 animals will therefore vary from 0 to 20; these scores are used as the indications of the activity of the test compound. The vehicle-control group score is used as a determinate of the validity of each test.

[2] = system: male mouse; assay: supramaximal electroshock (SES) assay (anticonvulsant activity); conditions: for ED50: ip, read-out: ANTICONVULSANT ACTIVITY (% Inhibition of Convulsion) ED50 (mg/kg,i.p.)
[3] = system: mice; assay: phenyl-p-benzoquinone writhing assay in mice (analgesia); conditions: Mus musculus, sc
[4] = male mouse, at peak activity time, protection against extensor tonus
[5] = calculated s.c. dose effecting approximately 50% inhibition of writhing in mice, at peak time, read-out: ANALGESIC ACTIVITY (% Inhibition of Writhing) ED50
[6] = read-out: ANALGESIC ACTIVITY (% Inhibition of Writhing) ED50 (mg/kg)

## Fc1ccc(-n2nc(N3CCNCC3)c3ccccc32)cc1 [1-(4-Fluorophenyl)-3-(1-piperazinyl)-1H-indazole]
[1]
  ED50: 17.3 mg/kg

## CN1CCN(c2nn(-c3ccc(F)cc3)c3ccccc23)CC1.O=C(O)/C=C/C(=O)O [1-(4-Fluorophenyl)-3-(4-methyl-1-piperazinyl)-1H-indazole fumarate]
[2]; [4]
  ED50: 12.9 mg/kg
[3]; [5]
  ED50: 0.8 mg/kg
[1]; 20 mg/kg, i.p., mice
  % inhibition of ptosis at indicated screening dosage (i.p.): 65% @ 20 mg/kg*

## c1ccc(-n2nc(N3CCNCC3)c3ccccc32)cc1 [1-Phenyl-3-(1-piperazinyl)-1H-indazole hydrocloride]
[2]; 60 mg/kg, i.p., male mouse
  % inhibition of convulsions at indicated dosage: 100% @ 60 mg/kg*
[3]; [5]
  ED50: 0.7 mg/kg
[1]
  ED50: 25.4 mg/kg

## CN1CCN(c2nn(-c3ccccc3)c3ccccc23)CC1.Cl [1-Phenyl-3-(4-methyl-1-piperazinyl)-1H-indazole hydrochloride]
[2]; [4]
  ED50: 14.6 mg/kg
[3]; [5]
  ED50: 1.6 mg/kg
[1]
  ED50: 11.1 mg/kg

## CCN1CCN(c2nn(-c3ccc(C(F)(F)F)cc3)c3ccccc23)CC1 [3-(4-Ethyl-1-piperazinyl)-1-[4-trifluoromethyl)phenyl]-1H-indazole fumarate]
[2]; [4]
  ED50: 8.2 mg/kg

## CN1CCN(c2nn(-c3ccc(C(F)(F)F)cc3)c3ccccc23)CC1.O=C(O)/C=C/C(=O)O [3-(4-Methyl-1-piperazinyl)-1-[4-(trifluoromethyl)phenyl]-1H-indazole fumarate]
[2]; [4]
  ED50: 27 mg/kg

## CP(C)(=O)CN1CCN(c2nn(-c3ccccc3)c3ccccc23)CC1 [3-[4-(Dimethylphosphinylmethyl)-1-piperazinyl]-1-phenyl-1H-indazole]
[2]; [4]
  ED50: 24.3 mg/kg

## NC(=O)N1CCN(c2nn(-c3ccccc3Cl)c3ccccc23)CC1 [4-[1-(2-chlorophenyl)-1H-indazol-3-yl]-1-piperazine carboxamide hemifumarate]
[2]; [4]
  ED50: 38.9 mg/kg

## NC(=O)N1CCN(c2nn(-c3ccc(F)cc3)c3ccccc23)CC1 [4-[1-(4-Fluorophenyl)-1H-indazol-3-yl]-1-piperazine carboxamide]
[2]; [4]
  ED50: 22.7 mg/kg

## CN(C)CCC=C1c2ccccc2CCc2ccccc21 [amitriptyline, reference compound]
[1]
  ED50: 1.5 mg/kg

## CN(C)CCCN1c2ccccc2CCc2ccccc21 [imipramine, reference compound]
[1]; read-out: ANTI-[…] (% Inhibition of Ptosis) ED50 (mg/kg,i.p.)
  ED50: 1.3 mg/kg

## CC(C)=CCN1CCC2(C)c3cc(O)ccc3CC1C2C (centres unmarked) [pentazocine, reference compound]
[3]; [6]
  ED50: 1.3 mg/kg

## CCC1(c2ccccc2)C(=O)NC(=O)NC1=O [phenobarbitol, reference compound]
[2]; Mus musculus
  ED50: 8.4 mg/kg

## CCC(=O)O[C@](Cc1ccccc1)(c1ccccc1)[C@H](C)CN(C)C [propoxyphene, reference compound]
[3]; [6]
  ED50: 3.9 mg/kg
